According to ChEMBL document CHEMBL1156143, “Structure-activity relationship studies of chalcone leading to 3-hydroxy-4,3',4',5'-tetramethoxychalcone and its analogues as potent nuclear factor kappaB inhibitors and their anticancer activities” (J Med Chem, 2009):
The source made the active and inactive calls. No cut-off for these calls is given here.

Columns and labels:
[1] = Inhibition of TNFalpha induced NF-kappaB activation in human A549 cells by luciferase reporter gene assay; type: cell-based
A549 = experiment: Cytotoxicity against human A549 cells after 48 hrs by fluorescence assay; type: functional; conditions: A549, 48 h
NCI-H2009 [2] = experiment: Cytotoxicity against human NCI-H2009 cells after 48 hrs by fluorescence assay; type: functional; conditions: NCI-H2009, 48 h
[3] = target: Interleukin-1 receptor-associated kinase 1 (Homo sapiens) (UniProt P51617); experiment: Inhibition of IRAK1 at 10 uM
[4] = target: T1, Interleukin-1 receptor-associated kinase 4 (Homo sapiens) (UniProt Q9NWZ3); experiment: Inhibition of IRAK4 at 10 uM
T1 sequence (whole entry): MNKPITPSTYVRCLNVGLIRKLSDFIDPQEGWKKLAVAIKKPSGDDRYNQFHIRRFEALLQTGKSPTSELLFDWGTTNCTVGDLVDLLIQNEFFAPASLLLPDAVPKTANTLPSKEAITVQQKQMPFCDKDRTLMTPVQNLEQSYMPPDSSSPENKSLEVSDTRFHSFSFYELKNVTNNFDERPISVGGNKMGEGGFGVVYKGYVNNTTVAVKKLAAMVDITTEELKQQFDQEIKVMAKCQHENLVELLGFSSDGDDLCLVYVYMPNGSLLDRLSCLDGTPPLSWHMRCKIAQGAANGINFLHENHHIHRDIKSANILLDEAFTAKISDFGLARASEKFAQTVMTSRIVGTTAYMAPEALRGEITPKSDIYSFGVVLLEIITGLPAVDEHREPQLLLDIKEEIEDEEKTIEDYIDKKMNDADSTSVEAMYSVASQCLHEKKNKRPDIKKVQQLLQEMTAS

Mus musculus [5] = experiment: Toxicity in SCID mouse xenografted with human NCI-H2009 cells at 1 mg/day, ip treated 6 days in a week for 5 weeks; type: organism-based; conditions: in vivo
Mus musculus [6] = experiment: Toxicity in SCID mouse xenografted with human NCI-H2009 cells assessed as increase in body weight at 1 mg/day, ip treated 6 days in a week for 5 weeks; type: organism-based; conditions: in vivo
[7] = target: T2, Inhibitor of nuclear factor kappa-B kinase subunit alpha (Homo sapiens) (UniProt O15111); experiment: Inhibition of IKKalpha at 10 uM
T2 sequence (whole entry): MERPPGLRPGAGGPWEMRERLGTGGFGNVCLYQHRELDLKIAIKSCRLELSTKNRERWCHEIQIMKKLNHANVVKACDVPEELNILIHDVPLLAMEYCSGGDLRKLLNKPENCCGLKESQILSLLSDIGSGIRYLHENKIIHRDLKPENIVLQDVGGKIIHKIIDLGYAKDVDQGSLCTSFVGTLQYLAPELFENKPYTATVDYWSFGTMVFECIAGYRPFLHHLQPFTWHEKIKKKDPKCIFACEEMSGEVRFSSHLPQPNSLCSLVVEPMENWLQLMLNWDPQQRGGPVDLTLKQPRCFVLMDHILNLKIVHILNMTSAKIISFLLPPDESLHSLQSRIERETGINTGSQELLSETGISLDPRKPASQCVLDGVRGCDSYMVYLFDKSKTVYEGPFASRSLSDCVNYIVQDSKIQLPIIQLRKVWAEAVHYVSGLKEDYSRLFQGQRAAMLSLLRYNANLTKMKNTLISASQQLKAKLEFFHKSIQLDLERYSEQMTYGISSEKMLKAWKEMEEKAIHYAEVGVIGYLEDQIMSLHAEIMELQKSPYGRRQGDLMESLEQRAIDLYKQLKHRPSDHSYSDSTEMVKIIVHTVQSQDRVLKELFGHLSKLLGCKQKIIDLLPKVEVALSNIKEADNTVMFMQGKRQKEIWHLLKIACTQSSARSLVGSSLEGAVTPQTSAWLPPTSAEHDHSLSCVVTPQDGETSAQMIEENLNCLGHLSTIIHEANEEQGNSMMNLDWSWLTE

[8] = target: Mitogen-activated protein kinase kinase kinase 7 (TAK1) (Homo sapiens) (UniProt O43318); experiment: Inhibition of TAK1 at 10 uM
[9] = target: T3, Inhibitor of nuclear factor kappa-B kinase subunit beta (Homo sapiens) (UniProt O14920); experiment: Inhibition of IKK-beta at 10 uM
T3 sequence (whole entry): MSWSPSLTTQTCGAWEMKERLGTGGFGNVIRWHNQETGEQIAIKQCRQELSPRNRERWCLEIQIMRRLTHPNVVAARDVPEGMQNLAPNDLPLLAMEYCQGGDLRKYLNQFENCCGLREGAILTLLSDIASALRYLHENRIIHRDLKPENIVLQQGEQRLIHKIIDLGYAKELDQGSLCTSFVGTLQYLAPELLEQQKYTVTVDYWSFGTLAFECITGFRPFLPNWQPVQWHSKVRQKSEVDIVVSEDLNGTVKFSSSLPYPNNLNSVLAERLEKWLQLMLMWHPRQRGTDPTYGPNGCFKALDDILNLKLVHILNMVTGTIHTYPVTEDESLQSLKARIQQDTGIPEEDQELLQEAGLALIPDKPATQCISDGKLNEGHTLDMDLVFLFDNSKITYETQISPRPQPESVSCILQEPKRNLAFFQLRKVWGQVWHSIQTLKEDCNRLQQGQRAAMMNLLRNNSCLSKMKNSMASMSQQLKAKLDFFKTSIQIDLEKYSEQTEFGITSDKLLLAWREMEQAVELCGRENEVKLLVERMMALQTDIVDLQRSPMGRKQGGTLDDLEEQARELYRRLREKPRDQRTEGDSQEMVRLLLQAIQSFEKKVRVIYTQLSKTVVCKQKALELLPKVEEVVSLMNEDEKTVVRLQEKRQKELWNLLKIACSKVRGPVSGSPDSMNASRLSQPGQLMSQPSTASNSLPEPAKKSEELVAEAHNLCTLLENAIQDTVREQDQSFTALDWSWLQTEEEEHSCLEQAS

Mus musculus [10] = experiment: Toxicity in SCID mouse xenografted with human NCI-H2009 cells assessed as necropsy at 1 mg/day, ip treated 6 days in a week for 5 weeks; type: organism-based; conditions: in vivo
NCI-H2009 [11] = experiment: Anticancer activity against human NCI-H2009 cells xenografted in SCID mouse assessed as suppression of tumor growth at 1 mg/day, ip treated 6 days in a week for 5 weeks; type: functional
[12] = target: Proto-oncogene tyrosine-protein kinase Src (Homo sapiens) (UniProt P12931); experiment: Inhibition of c-Src at 10 uM
Sequence of Proto-oncogene tyrosine-protein kinase Src (Homo sapiens) (P12931 2-536 limits assumed): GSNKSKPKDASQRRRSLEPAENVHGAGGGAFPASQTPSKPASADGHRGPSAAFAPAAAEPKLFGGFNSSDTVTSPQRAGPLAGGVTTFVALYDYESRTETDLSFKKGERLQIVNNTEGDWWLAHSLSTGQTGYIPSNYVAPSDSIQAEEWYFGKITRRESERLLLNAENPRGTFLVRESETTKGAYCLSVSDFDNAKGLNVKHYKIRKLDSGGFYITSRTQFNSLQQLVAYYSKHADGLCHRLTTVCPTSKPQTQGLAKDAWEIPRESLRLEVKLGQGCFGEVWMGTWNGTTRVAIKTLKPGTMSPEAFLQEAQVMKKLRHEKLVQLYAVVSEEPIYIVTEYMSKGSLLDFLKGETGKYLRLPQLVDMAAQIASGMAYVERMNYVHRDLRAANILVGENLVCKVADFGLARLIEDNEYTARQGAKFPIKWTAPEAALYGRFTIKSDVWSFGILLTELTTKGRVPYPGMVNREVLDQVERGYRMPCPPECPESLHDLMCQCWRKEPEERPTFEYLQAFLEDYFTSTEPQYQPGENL

Sequence of Interleukin-1 receptor-associated kinase 1 (Homo sapiens) (P51617 whole entry, looked up): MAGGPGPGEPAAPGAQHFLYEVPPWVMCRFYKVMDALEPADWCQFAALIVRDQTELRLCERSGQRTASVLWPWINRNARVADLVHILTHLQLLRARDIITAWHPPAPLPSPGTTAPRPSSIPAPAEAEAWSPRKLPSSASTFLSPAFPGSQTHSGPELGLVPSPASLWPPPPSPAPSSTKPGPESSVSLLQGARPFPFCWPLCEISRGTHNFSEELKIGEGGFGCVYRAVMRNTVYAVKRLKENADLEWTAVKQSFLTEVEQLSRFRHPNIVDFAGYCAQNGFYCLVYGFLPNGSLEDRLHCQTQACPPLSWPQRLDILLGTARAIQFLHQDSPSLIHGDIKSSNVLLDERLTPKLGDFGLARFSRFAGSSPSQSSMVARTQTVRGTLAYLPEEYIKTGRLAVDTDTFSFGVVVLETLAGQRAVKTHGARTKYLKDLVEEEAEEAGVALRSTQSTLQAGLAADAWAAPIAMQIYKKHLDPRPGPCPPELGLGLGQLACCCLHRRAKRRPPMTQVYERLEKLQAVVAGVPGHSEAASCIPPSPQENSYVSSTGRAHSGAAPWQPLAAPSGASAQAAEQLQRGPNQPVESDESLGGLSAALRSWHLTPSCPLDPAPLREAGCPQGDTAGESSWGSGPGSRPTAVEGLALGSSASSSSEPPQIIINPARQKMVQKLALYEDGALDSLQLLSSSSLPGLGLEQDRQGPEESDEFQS
Sequence of Mitogen-activated protein kinase kinase kinase 7 (TAK1) (Homo sapiens) (O43318 whole entry, looked up): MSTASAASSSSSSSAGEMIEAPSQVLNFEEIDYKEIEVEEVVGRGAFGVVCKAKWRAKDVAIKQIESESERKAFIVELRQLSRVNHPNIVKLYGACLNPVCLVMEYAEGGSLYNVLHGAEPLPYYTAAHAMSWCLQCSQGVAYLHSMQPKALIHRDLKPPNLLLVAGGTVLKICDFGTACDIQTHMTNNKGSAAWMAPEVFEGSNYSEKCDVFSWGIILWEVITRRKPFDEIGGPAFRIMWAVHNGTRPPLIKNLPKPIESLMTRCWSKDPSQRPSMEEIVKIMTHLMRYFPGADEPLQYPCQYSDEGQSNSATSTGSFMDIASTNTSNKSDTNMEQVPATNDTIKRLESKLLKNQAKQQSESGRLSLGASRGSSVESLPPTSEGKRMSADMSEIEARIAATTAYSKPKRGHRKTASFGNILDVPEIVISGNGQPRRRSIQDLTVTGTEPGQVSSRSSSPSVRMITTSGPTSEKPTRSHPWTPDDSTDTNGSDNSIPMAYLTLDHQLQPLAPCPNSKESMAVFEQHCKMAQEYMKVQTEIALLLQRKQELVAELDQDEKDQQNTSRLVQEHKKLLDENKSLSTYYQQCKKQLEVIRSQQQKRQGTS

Row | SMILES | IC50 [1] [µM] | GI50 (A549) [µM] | GI50 (NCI-H2009 [2]) [µM] | also measured
1 | O=C(/C=C/c1ccc(O)c(O)c1)c1ccc(O)cc1O [BUTEIN] | > 20 |  |  | 
2 | O=C(/C=C/c1ccccc1)c1ccc(F)cc1 | > 20 |  |  | 
3 | O=C(/C=C/c1ccc(O)cc1)c1ccc(O)cc1O [ISOLIQUIRITIGENIN] | > 20 |  |  | 
4 | O=C(/C=C/c1ccccc1)c1ccc(C(F)(F)F)cc1 | > 20 |  |  | 
5 | COc1cc(C(=O)/C=C/c2ccccc2)cc(OC)c1OC | 8.9 | 8.8 | 6.6 | 
6 | COc1ccc(/C=C/C(=O)c2cc(OC)c(OC)c(OC)c2)cc1OCCN | 5.9 | 5.6 | 3.6 | 
7 | COc1cc(O)c(C(=O)/C=C/c2ccccc2)c(OC)c1 [FLAVOKAWAIN B] | > 20 |  |  | 
8 | COc1cc(O)c(C(=O)/C=C/c2ccccc2Br)c(OC)c1 | > 20 |  |  | 
9 | COc1ccc(/C=C/C(=O)c2cc(OC)c(OC)c(OC)c2)cc1OCCO | 9.1 | 4.7 | 3.3 | 
10 | O=C(/C=C/c1ccc(O)cc1)c1ccccc1 [4-HYDROXYCHALCONE] | > 20 |  |  | 
11 | O=C(/C=C/c1ccccc1)c1ccccc1 [CHALCONE] | > 20 |  |  | 
12 | O=C(/C=C/c1ccccc1)c1ccc(F)c(F)c1 | > 20 |  |  | 
13 | Cc1ccc(C(=O)/C=C/c2ccccc2)cc1 | > 20 |  |  | 
14 | O=C(/C=C/c1ccccc1)c1ccccc1O [2'-HYDROXYCHALCONE] | > 20 |  |  | 
15 | COc1cc(O)c(C(=O)/C=C/c2ccccc2C)c(OC)c1 | > 20 |  |  | 
16 | COc1ccc(CCC(=O)c2cc(OC)c(OC)c(OC)c2)cc1O | > 20 | 17.6 | 47 | 
17 | COc1cc(O)c(C(=O)/C=C/c2cc(OC)c(OC)c(OC)c2)c(OC)c1 | > 20 |  |  | 

Now from value to compound, other results behind:

Row | IC50 [1] [µM] | SMILES | GI50 (A549) [µM] | GI50 (NCI-H2009 [2]) [µM] | also measured
18 | 2.3 | COc1cc(C(=O)/C=C/c2cccc(O)c2)cc(OC)c1OC | 1.7 | 4.2 | 
19 | 19.3 | COc1ccc(/C=C/C(=O)c2cc(OC)c(OC)c(OC)c2)cc1 | 12.4 | 8.4 | 
20 | 8.1 | COc1cc(OC)cc(C(=O)/C=C/c2ccc(OC)c(O)c2)c1 | 3.3 | 2.3 | 
21 | 12.3 | COc1cc(O)c(C(=O)/C=C/c2cccc(Br)c2)c(OC)c1 |  |  | 
22 | 17 | COc1cc(O)c(C(=O)/C=C/c2cccc(C)c2)c(OC)c1 |  |  | 
23 | > 20 | COc1cc(O)c(C(=O)/C=C/c2ccc(F)cc2)c(OC)c1 |  |  | 
24 | > 20 | COc1ccc(/C=C/C(=O)c2c(O)cc(OC)cc2OC)cc1 [FLAVOKAWAIN A] |  |  | 
25 | > 20 | COc1cc(O)c(C(=O)/C=C/c2ccc(Cl)cc2)c(OC)c1 |  |  | 
26 | 11.6 | COc1cc(C(=O)/C=C/c2ccc(O)cc2)cc(OC)c1OC | 8.5 | 4.5 | 
27 | 8 | COc1ccc(/C=C/C(=O)c2ccc(OC)c(OC)c2)cc1O | 5.2 | 4.6 | 
28 | 5.1 | COc1ccc(/C=C/C(=O)c2cc(OC)c(OC)c(OC)c2)cc1O | 2.1 | 5.2 | inhibition [3]: inactive; inhibition [4]: 41%; Activity (Mus musculus [5]): Non-toxic; Activity (Mus musculus [6]): Non-toxic; inhibition [7]: inactive; inhibition [8]: inactive; inhibition [9]: 46%; Activity (Mus musculus [10]): Non-toxic; Activity (NCI-H2009 [11]): 57%; inhibition [12]: inactive
29 | > 20 | COc1cc(O)c(C(=O)/C=C/c2ccc(OC)c(O)c2)c(OC)c1 |  |  | 
30 | > 20 | CCCOc1ccc(/C=C/C(=O)c2c(O)cc(OC)cc2OC)cc1 |  |  | 
31 | 1.9 | COc1cc(C(=O)/C=C/c2ccc(O)c(O)c2)cc(OC)c1OC | 2.6 | 1.1 | 
32 | 14.7 | COc1ccc(/C=C/C(=O)c2cc(OC)c(O)c(OC)c2)cc1O | 4 | 7.5 | 
33 | > 20 | COc1cc(O)c(C(=O)/C=C/c2ccc(OC)c(C)c2)c(OC)c1 |  |  | 
